Common to all, as to assay type: cell-based, mouse
Assay [1] deals with β-galactosidase in CMV-LacZ C2C12 myotubes. Kind of assay: CMV-LacZ secondary screen in C2C12 myotubes (β-Gal stabilizing assay). Conditions: for CMV-LACZ in Myotubes, signal relative to DMSO: C2C12 CMV-LacZ myotubes, fold relative to DMSO; for CMV-LACZ in Myotubes, value relative to DMSO: SU9516 analogs, C2C12 CMV-LacZ, N=2. In a few lines:
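Stable CMV-LacZ C2C12 clone; six-point curve 0.5–40 μM; duplicates.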

Assay [2] has as its system α7 integrin (LacZ reporter in α7βgal+/− myoblasts). Kind of assay: Myoblast α7+/LacZ integrin FDG assay (Burkin assay in myoblasts, 96-well). Conditions: for Burkin Assay in Myoblasts, signal relative to DMSO: α7+/LacZ myoblasts, 96-well.
Assay [3] deals with β-galactosidase in CMV-LacZ C2C12 myoblasts. Kind of assay: CMV-LacZ secondary screen in C2C12 myoblasts (β-Gal stabilizing assay). Conditions: for CMV-LACZ in Myoblasts (β-galactosidase activity relative to DMSO): CMV-LacZ C2C12 myoblasts; for CMV-LACZ in Myoblasts, value relative to DMSO: SU9516 analogs, C2C12 CMV-LacZ, N=2. A digest of the protocol: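 C2C12 myoblasts stably carrying a linearized CMV-driven LacZ construct, clone chosen by β-gal level in the myoblast FDG assay. Compounds tested in 96-well dose-response at 0.5, 1, 5, 10, 20 and 40 μM, N=2 replicates per point, to detect β-gal stabilization.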

Assay [4] deals with α7 integrin (LacZ reporter in α7+/LacZ myotubes). Nature of the assay: Myotube α7 integrin FDG assay (Burkin assay in myotubes, 96-well). The note with it: for Burkin Assay in Myotubes, value relative to DMSO: SU9516 analogs, 96-well, N=3-6.
[5] abbreviates: Mus musculus, Myoblast, 48 h, read-out: Burkin Assay in Myoblasts, value relative to DMSO.

For `COc1ccc(CN2CCNC(=O)C2CC(=O)NCCc2c[nH]c3ccccc23)c(OC)c1` (stereo not drawn) [MLS000734270-01], the “CMV-LACZ in Myotubes, signal relative to DMSO” value in assay [1] (0.5 uM) came to 1.0019; in assay [1] (1 uM), 1.0038; in assay [1] (5 uM) it was 1.1042; in assay [1] (10 uM), 1.0885; in assay [1] (20 uM), 1.1158; in assay [1] (40 uM), 0.9095. For the same compound, the “Burkin Assay in Myoblasts, signal relative to DMSO” value in assay [2] (0.5 uM) is given as 1.0135; in assay [2] (1 uM), 1.048; in assay [2] (5 uM), 1.21; in assay [2] (10 uM), 0.955; in assay [2] (20 uM), 0.9739; in assay [2] (40 uM) it was 0.9873. In addition, the “CMV-LACZ in Myoblasts (β-galactosidase activity relative to DMSO)” value is given as 0.9296 in assay [3] (0.5 uM); 0.8379 in assay [3] (1 uM); 0.9337 in assay [3] (5 uM); 0.9468 in assay [3] (10 uM); 1.0122 in assay [3] (20 uM); 0.9548 in assay [3] (40 uM). Besides, the “Burkin Assay in Myotubes, α7 integrin LacZ reporter signal relative to DMSO” value turned out to be 0.941 in assay [4] (0.5 uM); 0.8975 in assay [4] (1 uM); 1.083 in assay [4] (5 uM); 0.9081 in assay [4] (10 uM); 0.8558 in assay [4] (20 uM); 0.8102 in assay [4] (40 uM).

Consider `O=C1Nc2ccccc2/C1=C/c1c[nH]cn1` [MLS000327715-01], for which the “CMV-LACZ in Myotubes, value relative to DMSO” value in assay [1] (0.5 uM) turned out to be 1.1762; in assay [1] (1 uM) it was 1.0562; in assay [1] (5 uM) it was 1.1289; in assay [1] (10 uM) it was 0.9983; in assay [1] (20 uM) it was 1.2200; in assay [1] (40 uM), 1.4871. In assay [2] (setting [5]), the fold induction at 0.5 µM was determined as 1.38. Moreover, the fold induction at 1 µM in assay [2] (setting [5]) was 1.09. Also, the fold induction at 5 µM in assay [2] (setting [5]) turned out to be 1.15. Besides, the fold induction at 10 µM in assay [2] (setting [5]) worked out at 1.03. Further, in assay [2] (setting [5]), the fold induction at 20 µM was determined as 0.902. The fold induction at 40 µM in assay [2] (setting [5]) stood at 0.578. Moreover, the “CMV-LACZ in Myoblasts, value relative to DMSO” value was 1.2294 in assay [3] (0.5 uM); 1.1731 in assay [3] (1 uM); 0.9664 in assay [3] (5 uM); 1.0060 in assay [3] (10 uM); 1.3181 in assay [3] (20 uM); 1.0648 in assay [3] (40 uM). Further, the “Burkin Assay in Myotubes, value relative to DMSO” value was determined as 0.8838 in assay [4] (0.5 uM); 1.025 in assay [4] (1 uM); 1.302 in assay [4] (5 uM); 1.115 in assay [4] (10 uM); 1.192 in assay [4] (20 uM); 1.119 in assay [4] (40 uM).

As for `Br.COc1ccc(C(=O)CN2CCCCC2)cc1` [MLS001004864-01], the “CMV-LACZ in Myotubes, signal relative to DMSO” value amounted to 0.9657 in assay [1] (0.5 uM); 0.9610 in assay [1] (1 uM); 1.0697 in assay [1] (5 uM); 0.9501 in assay [1] (10 uM); 0.9653 in assay [1] (20 uM); 0.8884 in assay [1] (40 uM). Besides, the “Burkin Assay in Myoblasts, signal relative to DMSO” value in assay [2] (0.5 uM) is reported as 1.1396; in assay [2] (1 uM), 1.193; in assay [2] (5 uM), 1.109; in assay [2] (10 uM), 1.023; in assay [2] (20 uM) it was 1.105; in assay [2] (40 uM), 0.8883. In addition, the “CMV-LACZ in Myoblasts (β-galactosidase activity relative to DMSO)” value came to 1.2650 in assay [3] (0.5 uM); 0.9288 in assay [3] (1 uM); 1.2276 in assay [3] (5 uM); 1.0417 in assay [3] (10 uM); 1.2930 in assay [3] (20 uM); 0.9933 in assay [3] (40 uM). Further, the “Burkin Assay in Myotubes, α7 integrin LacZ reporter signal relative to DMSO” value in assay [4] (0.5 uM) was 0.949; in assay [4] (1 uM), 1.025; in assay [4] (5 uM), 0.9784; in assay [4] (10 uM) it was 0.9618; in assay [4] (20 uM), 0.6075; in assay [4] (40 uM), 0.376.

(Values after patent US9980943B2, “Methods of treating muscular dystrophy” (BOARD OF REGENTS OF THE NEVADA SYSTEM OF HIGHER EDUCATION, …, priority 2013, dated 2018).)
